Each block holds one molecule with its values, some of them ahead of it. Activity calls are given as the source filed them.
What was measured:
[1] = viability of uninfected HEp-2 cells – cell-based, HTS, cytotoxicity control for RSV inhibitor project, dose response (AID 2410); format: functional; conditions: human respiratory syncytial virus
[2] = molecular target: 5-hydroxytryptamine receptor 1E (Homo sapiens, UniProt P28566); assay: Counterscreen assay for S1P3 antagonists: Dose response cell-based high throughput screening assay to identify antagonists of the 5-Hydroxytryptamine Receptor Subtype 1E (5HT1E). [Related pubchem assays: 1429, 485 ]; format: functional
Chain of 5-hydroxytryptamine receptor 1E (P28566 whole entry): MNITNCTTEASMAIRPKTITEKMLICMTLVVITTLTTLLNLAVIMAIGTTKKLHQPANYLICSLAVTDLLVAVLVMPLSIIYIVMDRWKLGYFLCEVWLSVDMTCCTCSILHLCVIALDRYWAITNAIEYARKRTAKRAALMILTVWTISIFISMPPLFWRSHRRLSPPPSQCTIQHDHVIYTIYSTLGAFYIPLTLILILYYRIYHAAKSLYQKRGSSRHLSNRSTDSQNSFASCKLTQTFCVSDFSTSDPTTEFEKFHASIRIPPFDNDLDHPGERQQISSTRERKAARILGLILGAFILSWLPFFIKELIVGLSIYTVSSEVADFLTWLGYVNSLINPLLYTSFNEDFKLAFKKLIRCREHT

[3] = Trypanosoma cruzi growth suppression in host cells – NIH3T3 host cells, beta-gal luminescence, confirmation (AID 2044); format: functional, cell-based;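 note: intracellular parasites grown in NIH/3T3 mouse fibroblasts as host cells; luminescent beta-galactosidase reporter signal from transgenic T. cruzi replicating inside host cells; inhibitors lower the luminescence signal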
[4] = NIH3T3 cell viability loss – ATP luminescence, mouse fibroblasts, counter-screen, dose response (AID 2010); format: functional, cell-based;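 note: cells exposed to compound for about 90 hours before reading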
[5] = molecular target: Sphingosine 1-phosphate receptor 3 (Homo sapiens, UniProt Q99500); assay: Dose response cell-based high throughput screening assay for antagonists of the Sphingosine 1-Phosphate Receptor 3 (S1P3). [Related pubchem assays: 1429, 485 ]; format: functional
Chain of Sphingosine 1-phosphate receptor 3 (Q99500 whole entry): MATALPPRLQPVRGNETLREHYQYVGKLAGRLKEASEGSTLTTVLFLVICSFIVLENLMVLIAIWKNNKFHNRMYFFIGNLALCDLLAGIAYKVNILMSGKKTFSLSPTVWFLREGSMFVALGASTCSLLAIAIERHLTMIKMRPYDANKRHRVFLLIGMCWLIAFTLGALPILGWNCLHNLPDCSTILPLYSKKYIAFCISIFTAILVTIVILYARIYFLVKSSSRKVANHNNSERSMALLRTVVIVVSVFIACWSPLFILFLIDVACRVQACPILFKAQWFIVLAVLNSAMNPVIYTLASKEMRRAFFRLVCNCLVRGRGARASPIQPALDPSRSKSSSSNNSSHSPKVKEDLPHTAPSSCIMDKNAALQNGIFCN

[6] = molecular target: T1, Neuropeptide Y receptor type 2 (Homo sapiens, UniProt P49146); assay: IC50 for human NPY-Y2 blockade – cell-based, counter-screen for NPY-Y1 antagonist project, dose response (AID 1278); format: functional
T1 sequence (P49146 whole entry): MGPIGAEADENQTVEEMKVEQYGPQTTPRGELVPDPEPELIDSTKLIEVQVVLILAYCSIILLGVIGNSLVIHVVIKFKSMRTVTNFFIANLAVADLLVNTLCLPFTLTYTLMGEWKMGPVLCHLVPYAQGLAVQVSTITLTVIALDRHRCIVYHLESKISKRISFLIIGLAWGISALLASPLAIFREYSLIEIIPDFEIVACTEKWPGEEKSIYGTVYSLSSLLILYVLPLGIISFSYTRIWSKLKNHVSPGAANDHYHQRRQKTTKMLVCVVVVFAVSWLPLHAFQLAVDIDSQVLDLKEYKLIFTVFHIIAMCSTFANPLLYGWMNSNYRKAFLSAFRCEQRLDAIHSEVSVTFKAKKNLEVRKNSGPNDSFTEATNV

[7] = molecular target: T2, Neuropeptide Y receptor type 1 (Homo sapiens, UniProt P25929); assay: IC50 of human NPY-Y1 blockers – cell-based, dose response (AID 1277); format: functional
T2 sequence (P25929 whole entry): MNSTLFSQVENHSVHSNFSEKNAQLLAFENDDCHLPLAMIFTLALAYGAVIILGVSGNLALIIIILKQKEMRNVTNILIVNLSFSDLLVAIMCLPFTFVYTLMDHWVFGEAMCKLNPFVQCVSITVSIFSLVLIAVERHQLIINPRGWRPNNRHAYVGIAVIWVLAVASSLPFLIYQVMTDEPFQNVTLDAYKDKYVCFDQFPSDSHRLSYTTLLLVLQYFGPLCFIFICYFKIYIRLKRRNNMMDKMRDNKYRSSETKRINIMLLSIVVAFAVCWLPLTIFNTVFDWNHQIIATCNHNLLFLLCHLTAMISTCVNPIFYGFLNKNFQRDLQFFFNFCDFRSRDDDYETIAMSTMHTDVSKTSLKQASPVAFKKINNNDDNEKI

Estrogen receptor = molecular target: T3, Estrogen receptor (Homo sapiens, UniProt P03372);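 note: potency for inhibiting coactivator peptide recruitment to the receptor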
T3 sequence (P03372 whole entry): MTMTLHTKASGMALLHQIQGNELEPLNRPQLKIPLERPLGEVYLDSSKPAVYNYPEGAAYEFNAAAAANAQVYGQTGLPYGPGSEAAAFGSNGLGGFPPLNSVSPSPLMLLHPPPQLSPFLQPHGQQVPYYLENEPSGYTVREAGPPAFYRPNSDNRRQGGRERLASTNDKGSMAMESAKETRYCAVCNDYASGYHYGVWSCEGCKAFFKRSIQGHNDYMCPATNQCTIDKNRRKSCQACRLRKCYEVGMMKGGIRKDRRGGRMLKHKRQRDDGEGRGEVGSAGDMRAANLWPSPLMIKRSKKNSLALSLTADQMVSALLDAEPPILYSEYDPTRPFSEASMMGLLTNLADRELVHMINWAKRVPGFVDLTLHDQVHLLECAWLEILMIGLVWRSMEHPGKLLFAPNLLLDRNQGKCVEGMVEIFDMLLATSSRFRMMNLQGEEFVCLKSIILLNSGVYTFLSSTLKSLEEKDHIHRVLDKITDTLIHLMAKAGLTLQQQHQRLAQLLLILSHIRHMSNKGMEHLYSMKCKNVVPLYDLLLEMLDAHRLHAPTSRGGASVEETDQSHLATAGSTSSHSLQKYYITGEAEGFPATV

NS3 = NS3 (Hepatitis C virus, UniProt A3EZJ3); assay: PubChem AID 2173; parameters: species or system Hepacivirus hominis
Chain of NS3 (A3EZJ3 whole entry): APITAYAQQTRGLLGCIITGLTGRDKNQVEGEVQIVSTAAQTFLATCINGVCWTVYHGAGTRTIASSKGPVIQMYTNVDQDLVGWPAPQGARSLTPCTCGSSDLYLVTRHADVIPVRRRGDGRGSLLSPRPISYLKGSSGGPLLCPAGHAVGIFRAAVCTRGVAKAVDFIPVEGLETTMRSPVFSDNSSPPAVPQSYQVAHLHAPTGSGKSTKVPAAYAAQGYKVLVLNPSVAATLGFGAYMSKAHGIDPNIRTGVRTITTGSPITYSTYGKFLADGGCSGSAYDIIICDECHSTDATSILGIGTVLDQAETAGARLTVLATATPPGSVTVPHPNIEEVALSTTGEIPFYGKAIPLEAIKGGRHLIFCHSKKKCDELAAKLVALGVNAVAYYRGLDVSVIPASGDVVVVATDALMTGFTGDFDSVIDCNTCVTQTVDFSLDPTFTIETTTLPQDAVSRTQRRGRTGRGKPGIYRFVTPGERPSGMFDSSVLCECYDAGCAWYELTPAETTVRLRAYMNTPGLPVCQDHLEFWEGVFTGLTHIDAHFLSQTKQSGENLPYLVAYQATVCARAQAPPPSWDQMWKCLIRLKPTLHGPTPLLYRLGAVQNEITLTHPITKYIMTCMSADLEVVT

Estrogen receptor beta [8] = molecular target: T4, Estrogen receptor beta (Homo sapiens, UniProt Q92731);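 note: recombinant ER-beta bound to coactivator SRC1 peptide in presence of estradiol agonist; inhibitors block coactivator peptide binding and lower the FRET signal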
T4 sequence (Q92731 whole entry): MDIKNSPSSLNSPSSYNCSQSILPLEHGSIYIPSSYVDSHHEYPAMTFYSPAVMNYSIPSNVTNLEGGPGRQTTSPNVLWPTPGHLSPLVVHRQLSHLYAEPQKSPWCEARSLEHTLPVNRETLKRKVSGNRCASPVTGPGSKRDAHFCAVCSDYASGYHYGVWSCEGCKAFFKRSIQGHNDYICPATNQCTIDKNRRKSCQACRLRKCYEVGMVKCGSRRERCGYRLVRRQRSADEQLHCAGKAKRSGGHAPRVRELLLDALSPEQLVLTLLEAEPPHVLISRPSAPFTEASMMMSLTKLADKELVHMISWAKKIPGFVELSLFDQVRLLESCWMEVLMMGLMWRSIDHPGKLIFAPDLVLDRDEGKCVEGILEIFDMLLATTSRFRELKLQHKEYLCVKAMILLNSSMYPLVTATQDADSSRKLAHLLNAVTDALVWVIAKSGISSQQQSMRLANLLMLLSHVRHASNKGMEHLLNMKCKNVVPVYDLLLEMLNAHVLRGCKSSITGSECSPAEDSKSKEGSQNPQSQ

Estrogen receptor beta [9] = molecular target: T4, Estrogen receptor beta; assay: blockers of SRC-3 recruitment to ERβ – biochemical, ELISA, streptavidin-HRP readout, orthogonal assay, confirmation (AID 1060)
[10] = molecular target: Induced myeloid leukemia cell differentiation protein Mcl-1 (Homo sapiens, UniProt Q07820); format: functional
Chain of Induced myeloid leukemia cell differentiation protein Mcl-1 (Q07820 whole entry): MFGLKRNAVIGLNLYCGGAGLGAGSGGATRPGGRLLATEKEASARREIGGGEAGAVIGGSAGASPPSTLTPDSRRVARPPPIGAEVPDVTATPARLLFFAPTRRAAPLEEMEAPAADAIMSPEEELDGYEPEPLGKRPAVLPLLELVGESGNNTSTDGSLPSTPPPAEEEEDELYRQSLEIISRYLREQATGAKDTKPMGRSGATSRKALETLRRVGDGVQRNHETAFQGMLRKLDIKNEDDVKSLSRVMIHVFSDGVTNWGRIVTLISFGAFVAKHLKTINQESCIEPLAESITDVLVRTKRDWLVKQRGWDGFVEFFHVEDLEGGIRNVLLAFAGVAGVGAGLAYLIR

[11] = Luminescence-based counterscreen assay for KLF5 inhibitors: dose response cell-based high throughput screening assay to identify cytotoxic compounds using the IEC-6 intestinal epithelial cell line. [Related pubchem assays: 1700 (Primary screen.), 1834 (Confirmation screen.), 1858 (Summary AID.), 1905 (Counterscreen.)]; format: functional
[12] = HEK-293T viability loss after treatment – luminescence, T-cell screen hits, cytotoxicity control for TCR NF-kB inhibitor project, dose response (AID 489026); format: functional, cell-based;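 note: cells exposed to compound about 14 hours before the viability readout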
[13] = reduction of Shn3 3'UTR-driven luciferase in osteoblasts – cell-based, Clone20 osteoblasts, firefly luciferase, cherry-picked, dose response (AID 624132); format: functional;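 note: firefly luciferase luminescence from reporter carrying the Shn3 3'UTR in osteoblasts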
[14] = blockers of HIV-1 envelope-mediated cell-cell fusion – cherry-pick, dose response (AID 652057); format: functional, cell-based
[15] = off-target signal loss in HeLa-CEM21 co-culture – HeLa F-luc CTL cells, cherry-picked, counter-screen for HIV-1 Env fusion inhibitor project, dose response (AID 652040); format: functional, cell-based;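 note: potency for signal decrease marking cytotoxic or nonspecific inhibition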
[16] = HIV-1 AD8 envelope cell-cell fusion blockers – cherry-pick, dose response (AID 652062); format: functional, cell-based;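 note: luciferase signal from cell-cell fusion driven by HIV-1 clade B AD8 Env; potency is for inhibitors of fusion seen as a drop in luminescence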
[17] = Shn3 3'UTR reporter signal decrease – cell-based, Clone20 osteoblasts, firefly luciferase, cherry-pick, set 2, Schnurri-3 inhibitor project, dose response (AID 720490); format: functional;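 note: actives lower the luminescence signal as inhibitors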
[18] = toxicity toward HepG2 liver cells – cell-based, plate reader, cherry-pick, antagonist series, cytotoxicity control, dose response (AID 743416); format: functional
[19] = blockers of bursicon-stimulated LGR2 cAMP reporter – cell-based, HEK293, CRE-luciferase reporter, cherry pick, set 2, dose response (AID 743343); format: functional;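 note: transfected cells were stimulated with diluted bursicon conditioned medium after compound addition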
[20] = blockade of melanocortin 4 receptor signaling – cell-based, plate reader, cherry pick, counter-screen for LGR2 antagonist project, dose response (AID 743444); format: functional;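 note: transfected HEK 293 cells stimulated with alpha-MSH peptide; potency of inhibitors of the alpha-MSH evoked signal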
Bcl-2-like protein 10 = molecular target: T5, Bcl-2-like protein 10 (Homo sapiens, UniProt Q9HD36); assay: Concentration-response of Bcl-B inhibitors by biochemical FP with TR3 (AID 1243); format: functional
T5 sequence (Q9HD36 whole entry): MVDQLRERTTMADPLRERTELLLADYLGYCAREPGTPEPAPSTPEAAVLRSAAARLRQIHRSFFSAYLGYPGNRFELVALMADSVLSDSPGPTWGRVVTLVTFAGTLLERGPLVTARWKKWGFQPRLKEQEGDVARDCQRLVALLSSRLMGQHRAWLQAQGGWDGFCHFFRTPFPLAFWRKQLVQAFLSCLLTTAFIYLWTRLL

[21] = molecular target: Epstein-Barr nuclear antigen 1 (Epstein-Barr virus (strain B95-8) (HHV-4) (Human herpesvirus 4), UniProt P03211); assay: inhibition of EBV nuclear antigen 1 DNA binding – biochemical, fluorescence polarization, 1536-well, dose response (AID 2381); parameters: species or system human gammaherpesvirus 4;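 note: fluorescence polarization of a Cy5 DNA probe bound by EBNA-1 protein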
Chain of Epstein-Barr nuclear antigen 1 (P03211 whole entry): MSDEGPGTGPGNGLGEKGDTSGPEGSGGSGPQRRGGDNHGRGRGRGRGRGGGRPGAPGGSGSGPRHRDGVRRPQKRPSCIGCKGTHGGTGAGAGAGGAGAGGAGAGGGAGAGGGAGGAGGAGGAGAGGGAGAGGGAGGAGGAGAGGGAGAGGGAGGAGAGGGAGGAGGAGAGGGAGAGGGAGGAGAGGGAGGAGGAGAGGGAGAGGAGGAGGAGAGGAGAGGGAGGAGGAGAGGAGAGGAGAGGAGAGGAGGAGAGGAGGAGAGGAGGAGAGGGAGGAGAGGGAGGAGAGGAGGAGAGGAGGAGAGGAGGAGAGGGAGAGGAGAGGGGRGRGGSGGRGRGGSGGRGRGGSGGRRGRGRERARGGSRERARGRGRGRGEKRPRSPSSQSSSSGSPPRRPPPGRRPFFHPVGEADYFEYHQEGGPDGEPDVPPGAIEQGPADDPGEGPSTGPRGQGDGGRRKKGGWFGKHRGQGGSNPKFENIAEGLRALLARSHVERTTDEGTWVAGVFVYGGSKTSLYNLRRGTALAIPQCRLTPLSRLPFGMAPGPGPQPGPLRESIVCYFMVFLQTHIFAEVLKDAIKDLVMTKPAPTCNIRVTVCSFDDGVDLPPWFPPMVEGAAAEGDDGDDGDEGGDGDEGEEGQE

[22] = molecular target: Lytic switch protein BZLF1 (Epstein-Barr virus (strain B95-8) (HHV-4) (Human herpesvirus 4), UniProt P03206); assay: inhibition of BZLF1 ZTA DNA binding – biochemical, fluorescence polarization, Epstein-Barr virus, 1536-well, counter-screen for EBNA-1 inhibitor project, dose response (AID 2377); parameters: species or system human gammaherpesvirus 4;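 note: fluorescence polarization of Cy5-labelled ZRE DNA probe bound by purified Zta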
Chain of Lytic switch protein BZLF1 (P03206 whole entry): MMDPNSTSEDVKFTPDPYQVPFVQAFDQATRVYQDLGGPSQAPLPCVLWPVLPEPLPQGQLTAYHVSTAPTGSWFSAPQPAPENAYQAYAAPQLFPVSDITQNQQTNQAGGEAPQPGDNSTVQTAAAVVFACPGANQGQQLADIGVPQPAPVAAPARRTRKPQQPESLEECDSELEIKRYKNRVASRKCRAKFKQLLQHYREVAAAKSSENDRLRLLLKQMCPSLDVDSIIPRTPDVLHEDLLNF

[23] = molecular target: T6, Heat shock 70 kDa protein 1A (Homo sapiens, UniProt P0DMV8); assay: small-molecule inhibition of Hsp70 – biochemical, TR-FRET (AID 786)
T6 sequence (P0DMV8 whole entry): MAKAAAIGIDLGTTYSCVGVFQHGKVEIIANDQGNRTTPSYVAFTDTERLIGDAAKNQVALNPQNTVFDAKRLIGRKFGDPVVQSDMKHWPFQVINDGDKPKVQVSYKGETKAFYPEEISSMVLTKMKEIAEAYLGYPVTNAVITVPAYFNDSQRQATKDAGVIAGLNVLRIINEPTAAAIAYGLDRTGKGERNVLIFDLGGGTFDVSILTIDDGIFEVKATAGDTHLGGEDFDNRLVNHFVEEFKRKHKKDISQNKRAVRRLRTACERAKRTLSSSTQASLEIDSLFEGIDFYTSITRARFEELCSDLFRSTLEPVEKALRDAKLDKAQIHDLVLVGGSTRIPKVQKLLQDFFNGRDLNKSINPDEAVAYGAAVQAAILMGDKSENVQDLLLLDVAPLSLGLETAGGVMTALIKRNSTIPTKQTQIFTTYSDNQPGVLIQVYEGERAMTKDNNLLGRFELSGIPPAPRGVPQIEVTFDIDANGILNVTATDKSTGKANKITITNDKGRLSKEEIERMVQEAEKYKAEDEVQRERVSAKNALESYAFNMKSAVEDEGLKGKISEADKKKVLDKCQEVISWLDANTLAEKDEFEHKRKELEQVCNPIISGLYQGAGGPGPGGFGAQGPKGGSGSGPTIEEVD

[24] = molecular target: T6, Heat shock 70 kDa protein 1A; assay: small molecules displacing fluorescent ligand from Hsp70 – biochemical, fluorescence polarization, primary screen (AID 583)

Structure (SMILES): CC1C(c2ccccc2)N(C)C(c2ccccc2)CC1(O)c1ccc(F)cc1 (configuration not stated)
CC50 [1]: 19.4 µM (active)
IC50 [2]: > 50 µM (not active)
EC50 [3]: 2.78 µM (active)
EC50 [4]: > 60 µM (not active)
IC50 [5]: > 50 µM (not active)

IC50 [6]: > 35 µM (not active)
IC50 [7]: 22.7 µM (not active)
Structure (SMILES): COc1ccccc1CN(Cc1cc2cc(C)ccc2nc1O)Cc1nnnn1Cc1ccco1

IC50 (Estrogen receptor): > 50 µM (not active)
IC50 (NS3): 11 µM (not active)
IC50 (Estrogen receptor beta [8]): 10.3 µM (active)
IC50 (Estrogen receptor beta [9]): > 50 µM (not active)
IC50 [10]: 5.61 µM (active)
Structure (SMILES): C=CCSC1=N/C(=C\C=C\c2ccco2)C(=O)S1

Structure (SMILES): O=C(NCCc1ccccc1)c1ccc2c(c1)OCCO2
IC50 [11]: > 39.8 µM (not active)
IC50 [12]: > 80 µM (inactive)
AC50 [13]: 2.16 µM (active)
AC50 [14]: 2.05 µM (active)
AC50 [15]: 4.51 µM (active)
AC50 [16]: 3.07 µM (active)
AC50 [17]: 2.31 µM (active)
AC50 [18]: > 52 µM (inactive)
AC50 [19]: 0.801 µM (active)
AC50 [20]: 0.885 µM (active)

EC50 (Bcl-2-like protein 10): 1.2 µM (active)
Structure (SMILES): O=C(O)C1Nc2c(cccc2[N+](=O)[O-])C2C=CCC12 (configuration not stated)

IC50 [21]: 8.14 µM (active)
IC50 [22]: > 111 µM (not active)
Structure (SMILES): N#Cc1ccc(N2Cc3ccccc3/C2=N/C(=O)Nc2ccc(Cl)cc2)cc1

IC50 [23]: > 100 µM (not active)
IC50 [24]: > 100 µM (not active)
Structure (SMILES): Nc1nc2n(n1)C(c1ccco1)CC(c1ccc(Cl)cc1Cl)N2 (configuration not stated)
